What was measured:
[1] = test system: HT-29; assay: Antiproliferative activity against human HT-29 cells assessed as inhibition of cell growth at 10 uM measured after 72 hrs by MTT assay relative to control; type: functional
[2] = Cytotoxicity against HUVEC cells assessed as inhibition of cell growth at 10 uM measured after 72 hrs by MTT assay; type: cell-based; conditions: human
[3] = test system: MCF7; assay: Antiproliferative activity against human MCF7 cells assessed as inhibition of cell growth at 10 uM measured after 72 hrs by MTT assay relative to control; type: functional
[4] = test system: MDA-MB-231; assay: Antiproliferative activity against human MDA-MB-231 cells assessed as inhibition of cell growth at 10 uM measured after 72 hrs by MTT assay relative to control; type: functional
[5] = test system: MDA-MB-231; assay: Antiproliferative activity against human MDA-MB-231 cells assessed as inhibition of cell growth measured after 72 hrs by MTT assay; type: functional, cell-based; conditions: MDA-MB-231, 72 h
[6] = test system: A549; assay: Antiproliferative activity against human A549 cells assessed as inhibition of cell growth measured after 72 hrs by MTT assay; type: functional, cell-based; conditions: A549, 72 h
[7] = test system: HepG2; assay: Antiproliferative activity against human HepG2 cells assessed as inhibition of cell growth at 10 uM measured after 72 hrs by MTT assay relative to control; type: functional
[8] = test system: A549; assay: Antiproliferative activity against human A549 cells assessed as inhibition of cell growth at 10 uM measured after 72 hrs by MTT assay relative to control; type: functional

| Structure (SMILES) | inhibition at 10 µM [1] | inhibition at 72 h, 10 µM [2] | inhibition at 10 µM [3] | inhibition at 10 µM [4] | IC50 [5] | IC50 [6] | inhibition at 10 µM [7] | inhibition at 10 µM [8] |
| --- | --- | --- | --- | --- | --- | --- | --- | --- |
| CC(C)(C)c1cc2c(O)c(c1)Cc1cc(C(C)(C)C)cc(c1OC/C=C/C(=O)N(CCO)CCO)Cc1cc(C(C)(C)C)cc(c1O)Cc1cc(C(C)(C)C)cc(c1OC/C=C/C(=O)N(CCO)CCO)C2 | 39.8% | < 0% | 80.2% | 58.8% | 6.77 µM | 7.04 µM | 41% | 82% |
| CCC(Oc1c2cc(C(C)(C)C)cc1Cc1cc(C(C)(C)C)cc(c1O)Cc1cc(C(C)(C)C)cc(c1OC(CC)C(=O)NCCCO)Cc1cc(C(C)(C)C)cc(c1O)C2)C(=O)NCCCO (centres undefined) | 41.5% | < 0% | < 0% | 80.1% | 0.85 µM | 0.96 µM | 20.3% | 80.2% |
| CC(Oc1c2cc(C(C)(C)C)cc1Cc1cc(C(C)(C)C)cc(c1O)Cc1cc(C(C)(C)C)cc(c1OC(C)C(=O)NCCCCCO)Cc1cc(C(C)(C)C)cc(c1O)C2)C(=O)NCCCCCO (centres undefined) | 49.6% | 31.8% | < 0% | 89.3% | 3.26 µM | 2.98 µM | 19.8% | 86.8% |
| CC(C)(C)c1cc2c(O)c(c1)Cc1cc(C(C)(C)C)cc(c1OCCCCCC(=O)N(CCO)CCO)Cc1cc(C(C)(C)C)cc(c1O)Cc1cc(C(C)(C)C)cc(c1OCCCCCC(=O)N(CCO)CCO)C2 | 22.2% | < 0% | 1.44% | 34.5% | > 100 µM | > 100 µM | 17.3% | 46.8% |
| CCC(Oc1c2cc(C(C)(C)C)cc1Cc1cc(C(C)(C)C)cc(c1O)Cc1cc(C(C)(C)C)cc(c1OC(CC)C(=O)NCCCCCO)Cc1cc(C(C)(C)C)cc(c1O)C2)C(=O)NCCCCCO (centres undefined) | 26.3% | < 0% | < 0% | 63.7% | 1.36 µM | 3.78 µM | 9.3% | 52.7% |
| CC(Oc1c2cc(C(C)(C)C)cc1Cc1cc(C(C)(C)C)cc(c1O)Cc1cc(C(C)(C)C)cc(c1OC(C)C(=O)NCCCO)Cc1cc(C(C)(C)C)cc(c1O)C2)C(=O)NCCCO (centres undefined) | 58.4% | 48.2% | 82.5% | 90.1% | 1.31 µM | 1.76 µM | 69% | 91.2% |
| CC(C)(C)c1cc2c(O)c(c1)Cc1cc(C(C)(C)C)cc(c1OCCCC(=O)N(CCO)CCO)Cc1cc(C(C)(C)C)cc(c1O)Cc1cc(C(C)(C)C)cc(c1OCCCC(=O)N(CCO)CCO)C2 | 61.5% | < 0% | 60.1% | 80% | 5.81 µM | 3.81 µM | 62.8% | 88.1% |
| CCC(Oc1c2cc(C(C)(C)C)cc1Cc1cc(C(C)(C)C)cc(c1O)Cc1cc(C(C)(C)C)cc(c1OC(CC)C(=O)NCCO)Cc1cc(C(C)(C)C)cc(c1O)C2)C(=O)NCCO (centres undefined) | 32.1% | 34.3% | < 0% | 79.6% | 0.92 µM | 2.22 µM | 26.1% | 68.7% |
| CC(C)(C)c1cc2c(O)c(c1)Cc1cc(C(C)(C)C)cc(c1OCC(=O)NCCO)Cc1cc(C(C)(C)C)cc(c1O)Cc1cc(C(C)(C)C)cc(c1OCC(=O)NCCO)C2 | 66.2% | 19.6% | 92.2% | 90.5% | 4.53 µM | 3.84 µM | 89.9% | 92.3% |
| CC(Oc1c2cc(C(C)(C)C)cc1Cc1cc(C(C)(C)C)cc(c1O)Cc1cc(C(C)(C)C)cc(c1OC(C)C(=O)NCCO)Cc1cc(C(C)(C)C)cc(c1O)C2)C(=O)NCCO (centres undefined) | 47.3% | 35.7% | 76.8% | 89.2% | 1.18 µM | 2.5 µM | 67.9% | 91.8% |
| CC(C)(C)c1cc2c(O)c(c1)Cc1cc(C(C)(C)C)cc(c1OCCCCCC(=O)NCCO)Cc1cc(C(C)(C)C)cc(c1O)Cc1cc(C(C)(C)C)cc(c1OCCCCCC(=O)NCCO)C2 | 17.3% | < 0% | < 0% | 34.3% | 13 µM | > 100 µM | 22.6% | 61.6% |
| CC(C)(C)c1cc2c(O)c(c1)Cc1cc(C(C)(C)C)cc(c1OCCCCCC(=O)NCCCO)Cc1cc(C(C)(C)C)cc(c1O)Cc1cc(C(C)(C)C)cc(c1OCCCCCC(=O)NCCCO)C2 | 17.9% | < 0% | < 0% | 30.1% | 42.8 µM | > 100 µM | 9.3% | 56.5% |
| CC(C)(C)c1cc2c(O)c(c1)Cc1cc(C(C)(C)C)cc(c1OC/C=C/C(=O)NCCO)Cc1cc(C(C)(C)C)cc(c1O)Cc1cc(C(C)(C)C)cc(c1OC/C=C/C(=O)NCCO)C2 | 27.8% | 8.9% | 38% | 35% | 5.46 µM | 6.29 µM | 19.8% | 63.5% |
| CC(C)(C)c1cc2c(O)c(c1)Cc1cc(C(C)(C)C)cc(c1OCCCC(=O)NCCCO)Cc1cc(C(C)(C)C)cc(c1O)Cc1cc(C(C)(C)C)cc(c1OCCCC(=O)NCCCO)C2 | 35.3% | < 0% | < 0% | 29.5% | 17.9 µM | 10.3 µM | 24.4% | 56.4% |
| CC(C)(C)c1cc2c(O)c(c1)Cc1cc(C(C)(C)C)cc(c1OC/C=C/C(=O)NCCCO)Cc1cc(C(C)(C)C)cc(c1O)Cc1cc(C(C)(C)C)cc(c1OC/C=C/C(=O)NCCCO)C2 | 36.1% | 38.8% | 48.2% | 61.5% | 5.2 µM | 3.59 µM | 9.5% | 63.3% |
| CC(C)(C)c1cc2c(O)c(c1)Cc1cc(C(C)(C)C)cc(c1OCCCC(=O)NCCO)Cc1cc(C(C)(C)C)cc(c1O)Cc1cc(C(C)(C)C)cc(c1OCCCC(=O)NCCO)C2 | 40.1% | 57% | 16.2% | 25.8% | 11.7 µM | 13.7 µM | 28.7% | 54.4% |
| CC(C)(C)c1cc2c(O)c(c1)Cc1cc(C(C)(C)C)cc(c1OCCCC(=O)NCCCCCO)Cc1cc(C(C)(C)C)cc(c1O)Cc1cc(C(C)(C)C)cc(c1OCCCC(=O)NCCCCCO)C2 | 33.1% | 5.8% | < 0% | 34.4% | 9.15 µM | 7.64 µM | 25% | 50.5% |
| CC(Oc1c2cc(C(C)(C)C)cc1Cc1cc(C(C)(C)C)cc(c1O)Cc1cc(C(C)(C)C)cc(c1OC(C)C(=O)N(CCO)CCO)Cc1cc(C(C)(C)C)cc(c1O)C2)C(=O)N(CCO)CCO (centres undefined) | 65.7% | 57.2% | 96.2% | 91.3% | 1.63 µM | 3.75 µM | 93.8% | 91.2% |

— ChEMBL document CHEMBL4732096, “Design, synthesis and evaluation of calix[4]arene-based carbonyl amide derivatives with antitumor activities” (Eur J Med Chem, 2021)
